± gives the expanded uncertainty stated by the source.
Assays:
[1] = excess molar enthalpy (molar enthalpy of mixing); xn = mol fraction of the nth substance listed; settings: 298.15 K, 101 kPa, Liquid, Calvet calorimetry
[2] = xn = mol fraction of the nth substance listed; settings: 298.15 K, 101 kPa, Liquid, Vibrating tube method
[3] = 298.15 K; 101 kPa; Liquid; Vibrating tube method

CCCOC=O [propyl methanoate] + ClCCCl
Settings	excess molar enthalpy [kcal/mol]	mass density [kg/m3]
[1], x1 = 0.074	-0.00956 ± 0.000239	–
[1], x1 = 0.1687	-0.021 ± 0.000478	–
[1], x1 = 0.2733	-0.0368 ± 0.000956	–
[1], x1 = 0.3675	-0.0478 ± 0.0012	–
[1], x1 = 0.4473	-0.0576 ± 0.0012	–
[1], x1 = 0.5035	-0.0607 ± 0.00143	–
[1], x1 = 0.5082	-0.0609 ± 0.00143	–
[1], x1 = 0.5746	-0.0598 ± 0.00143	–
[1], x1 = 0.6509	-0.0569 ± 0.0012	–
[1], x1 = 0.7385	-0.049 ± 0.0012	–
[1], x1 = 0.8389	-0.0344 ± 0.000717	–
[1], x1 = 0.9272	-0.0184 ± 0.000478	–
[2], x1 = 0.0502	–	1224.05 ± 7.8
[2], x1 = 0.0994	–	1203.36 ± 7.2
[2], x1 = 0.1495	–	1182.95 ± 6.7
[2], x1 = 0.2004	–	1162.75 ± 6.2
[2], x1 = 0.2543	–	1141.88 ± 5.7
[2], x1 = 0.308	–	1121.58 ± 5.2
[2], x1 = 0.3635	–	1101.24 ± 4.8
[2], x1 = 0.4207	–	1080.82 ± 4.3
[2], x1 = 0.4795	–	1060.31 ± 3.9
[2], x1 = 0.5379	–	1040.49 ± 3.5
[2], x1 = 0.599	–	1020.32 ± 3.2
[2], x1 = 0.6634	–	999.69 ± 2.9
[2], x1 = 0.7281	–	979.46 ± 2.5
[2], x1 = 0.7928	–	959.73 ± 2.3
[2], x1 = 0.8612	–	939.48 ± 2
[2], x1 = 1	–	899.81 ± 1.6

CCCOC(=O)CC [propyl propanoate]
Settings	mass density [kg/m3]
[3]	875.61 ± 0.23

CCCOC(=O)CC [propyl propanoate] + ClCCCl
Settings	excess molar enthalpy [kcal/mol]	mass density [kg/m3]
[1], x1 = 0.0428	-0.0129 ± 0.000478	–
[1], x1 = 0.1001	-0.0299 ± 0.000717	–
[1], x1 = 0.1671	-0.0526 ± 0.0012	–
[1], x1 = 0.2376	-0.0758 ± 0.00167	–
[1], x1 = 0.3085	-0.0975 ± 0.00215	–
[1], x1 = 0.3736	-0.115 ± 0.00263	–
[1], x1 = 0.4312	-0.125 ± 0.00263	–
[1], x1 = 0.4782	-0.132 ± 0.00287	–
[1], x1 = 0.5177	-0.133 ± 0.00287	–
[1], x1 = 0.5861	-0.128 ± 0.00287	–
[1], x1 = 0.671	-0.117 ± 0.00263	–
[1], x1 = 0.7874	-0.0853 ± 0.00191	–
[1], x1 = 0.9084	-0.0437 ± 0.000956	–
[2], x1 = 0.0347	–	1224.28 ± 7.7
[2], x1 = 0.0727	–	1201.87 ± 6.9
[2], x1 = 0.1118	–	1180.16 ± 6.2
[2], x1 = 0.1538	–	1158.1 ± 5.6
[2], x1 = 0.1965	–	1136.61 ± 4.9
[2], x1 = 0.2437	–	1114.31 ± 4.3
[2], x1 = 0.2932	–	1092.38 ± 3.7
[2], x1 = 0.3455	–	1070.49 ± 3.2
[2], x1 = 0.3994	–	1049.24 ± 2.7
[2], x1 = 0.4599	–	1026.87 ± 2.2
[2], x1 = 0.5188	–	1006.4 ± 1.8
[2], x1 = 0.5854	–	984.69 ± 1.4
[2], x1 = 0.6557	–	963.29 ± 1.1
[2], x1 = 0.7316	–	941.63 ± 0.82
[2], x1 = 0.8153	–	919.43 ± 0.58
[2], x1 = 0.8998	–	898.5 ± 0.39
[2], x1 = 1	–	875.61 ± 0.23
